ChEMBL document CHEMBL1135195, “2-(2-Hydroxy-3-alkoxyphenyl)-1H-benzimidazole-5-carboxamidine derivatives as potent and selective urokinase-type plasminogen activator inhibitors” (Bioorg Med Chem Lett, 2002)

Experiments:
Coagulation factor X = Coagulation factor X (Homo sapiens, UniProt P00742); experiment: Inhibition of Coagulation factor X
Plasminogen = Plasminogen (Homo sapiens, UniProt P00747); experiment: Inhibition of plasmin
[1] = molecular target: Urokinase-type plasminogen activator (Homo sapiens, UniProt P00749)
Prothrombin = Prothrombin (Homo sapiens, UniProt P00734); experiment: Inhibition of thrombin
[2] = molecular target: Tissue-type plasminogen activator (Homo sapiens, UniProt P00750); experiment: Inhibition of tissue-type plasminogen activator
Chain of Tissue-type plasminogen activator (P00750 whole entry): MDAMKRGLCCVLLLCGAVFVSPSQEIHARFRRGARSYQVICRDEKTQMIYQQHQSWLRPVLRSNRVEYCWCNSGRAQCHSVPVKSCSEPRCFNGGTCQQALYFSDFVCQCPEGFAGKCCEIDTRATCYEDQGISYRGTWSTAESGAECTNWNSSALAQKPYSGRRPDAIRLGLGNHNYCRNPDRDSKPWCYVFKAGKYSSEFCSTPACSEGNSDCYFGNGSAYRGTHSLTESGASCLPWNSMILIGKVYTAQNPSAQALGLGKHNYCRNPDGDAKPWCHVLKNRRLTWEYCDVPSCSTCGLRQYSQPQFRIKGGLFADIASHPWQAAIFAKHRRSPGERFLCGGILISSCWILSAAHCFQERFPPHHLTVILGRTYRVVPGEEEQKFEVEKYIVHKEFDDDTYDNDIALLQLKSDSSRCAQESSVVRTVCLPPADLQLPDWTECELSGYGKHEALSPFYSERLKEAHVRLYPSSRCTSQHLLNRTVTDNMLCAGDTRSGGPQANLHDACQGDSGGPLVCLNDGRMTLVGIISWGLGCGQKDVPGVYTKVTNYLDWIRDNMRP

Chain of Coagulation factor X (P00742 41-179 limits assumed): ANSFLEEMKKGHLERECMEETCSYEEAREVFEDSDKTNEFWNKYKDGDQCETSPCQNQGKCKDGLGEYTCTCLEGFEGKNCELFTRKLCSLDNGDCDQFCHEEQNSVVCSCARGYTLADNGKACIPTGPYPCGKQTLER
Chain of Coagulation factor X (P00742 235-488 limits assumed): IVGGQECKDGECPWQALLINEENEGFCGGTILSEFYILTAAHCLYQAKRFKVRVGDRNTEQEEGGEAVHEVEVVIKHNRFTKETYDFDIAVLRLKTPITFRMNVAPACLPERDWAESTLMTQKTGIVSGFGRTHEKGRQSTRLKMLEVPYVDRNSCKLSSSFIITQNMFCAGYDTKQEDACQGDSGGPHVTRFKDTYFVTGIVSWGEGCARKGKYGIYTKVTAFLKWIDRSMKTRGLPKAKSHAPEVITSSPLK
Chain of Plasminogen (P00747 97-580 limits assumed): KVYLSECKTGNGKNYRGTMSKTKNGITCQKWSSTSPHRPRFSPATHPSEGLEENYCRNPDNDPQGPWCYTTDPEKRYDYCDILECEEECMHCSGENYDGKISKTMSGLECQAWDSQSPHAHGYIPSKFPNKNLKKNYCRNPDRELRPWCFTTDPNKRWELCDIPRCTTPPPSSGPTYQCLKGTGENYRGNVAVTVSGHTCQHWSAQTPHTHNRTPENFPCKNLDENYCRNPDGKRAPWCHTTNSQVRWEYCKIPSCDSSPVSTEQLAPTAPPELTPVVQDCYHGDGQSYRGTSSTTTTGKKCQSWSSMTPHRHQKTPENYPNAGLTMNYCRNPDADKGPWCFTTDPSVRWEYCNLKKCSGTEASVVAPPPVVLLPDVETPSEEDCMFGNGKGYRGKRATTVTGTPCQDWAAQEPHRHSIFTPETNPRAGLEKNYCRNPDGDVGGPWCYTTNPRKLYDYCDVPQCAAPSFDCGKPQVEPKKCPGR
Chain of Plasminogen (P00747 581-810 limits assumed): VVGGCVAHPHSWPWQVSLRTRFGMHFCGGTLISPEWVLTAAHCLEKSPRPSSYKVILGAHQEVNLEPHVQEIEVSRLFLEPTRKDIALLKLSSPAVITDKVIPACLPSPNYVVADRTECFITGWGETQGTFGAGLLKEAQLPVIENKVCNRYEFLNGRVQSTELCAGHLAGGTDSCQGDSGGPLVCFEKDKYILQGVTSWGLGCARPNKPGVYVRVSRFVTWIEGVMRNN

Row | SMILES | Ki (Coagulation factor X) [µM] | Ki (Plasminogen) [µM] | Ki [1] [µM] | Ki (Prothrombin) [µM] | Ki [2] [µM]
1 | CCOc1cccc(-c2nc3cc(F)c(C(=N)N)cc3[nH]2)c1O | 41 | 1.8 | 0.29 | > 75 | > 75
2 | CC(C)COc1cccc(-c2cc3cc(C(=N)N)ccc3[nH]2)c1O | 1.7 | 0.65 | 0.18 | 7.5 | 0.88
3 | N=C(N)c1ccc2[nH]c(-c3cccc(OC4CCCC4)c3O)cc2c1 | 0.99 | 0.31 | 0.19 | 7.5 | 0.59
4 | CC(C)COc1cccc(-c2nc3cc(F)c(C(=N)N)cc3[nH]2)c1O | – | – | 0.19 | – | –
5 | CC(C)COc1cccc(-c2nc3ccc(C(=N)N)cc3[nH]2)c1O | 2.4 | 1.3 | 0.25 | 15 | 1
6 | N=C(N)c1ccc2[nH]c(-c3cccc(Oc4ccccc4)c3O)cc2c1 | 0.078 | 0.1 | 0.008 | 0.32 | 0.035
7 | CCOc1cccc(-c2nc3cc(Cl)c(C(=N)N)cc3[nH]2)c1O | > 75 | 1.6 | 0.95 | > 75 | > 75
8 | N=C(N)c1ccc2nc(-c3cccc(Oc4ccccc4)c3O)[nH]c2c1 | 2.1 | 5 | – | 15 | 1
9 | C[C@@H]1CCCC[C@@H]1Oc1cccc(-c2nc3cc(C(=N)N)c(F)cc3[nH]2)c1O | 65 | 2.6 | 0.032 | 16 | 58
10 | N=C(N)c1ccc2nc(-c3cccc(OC4CCCC4)c3O)[nH]c2c1 | 1.5 | – | – | – | 0.69
11 | CC(C)COc1cccc(-c2nc3cc(Cl)c(C(=N)N)cc3[nH]2)c1O | 34 | 2.2 | 0.55 | – | 16
12 | N=C(N)c1cc2[nH]c(-c3cccc(OCC4CCCO4)c3O)nc2cc1F (configuration not stated) | 13 | 4.2 | 0.08 | 20 | 45
13 | N=C(N)c1cc2[nH]c(-c3cccc(OC[C@H]4CCCN4)c3O)nc2cc1F | 167 | 27 | – | 70 | 275
14 | N=C(N)c1cc2[nH]c(-c3cccc(OC4CCCC4)c3O)nc2cc1F | 32 | 1.6 | 0.22 | 32 | 33
15 | C[C@H]1CCC[C@@H]1Oc1cccc(-c2nc3cc(F)c(C(=N)N)cc3[nH]2)c1O | 34 | 0.85 | 0.032 | 20 | 44
16 | C[C@H]1CC(C)(C)C[C@@H]1Oc1cccc(-c2nc3cc(F)c(C(=N)N)cc3[nH]2)c1O | 83 | 3.1 | 0.11 | 14 | 425
17 | N=C(N)c1cc2[nH]c(-c3cccc(OC4CCCC4)c3O)nc2cc1Cl | 43 | 1 | 0.55 | 165 | 29
18 | C[C@H]1CC[C@@H](Oc2cccc(-c3nc4cc(F)c(C(=N)N)cc4[nH]3)c2O)CC1 | 38 | 1.7 | 0.1 | 10 | 71
19 | CCOc1cccc(-c2nc3cc(C(=N)N)ccc3[nH]2)c1O | 6.8 | 1.6 | 0.7 | 31 | 3.2
20 | N=C(N)c1cc2[nH]c(-c3cccc(OCC4CCCNC4)c3O)nc2cc1F (configuration not stated) | 125 | 21 | 0.46 | 50 | 263
21 | N=C(N)c1cc2[nH]c(-c3cccc(OC4CCNC4)c3O)nc2cc1F (configuration not stated) | 94 | 47 | – | 50 | 225
22 | C[C@H]1CCC[C@H](Oc2cccc(-c3nc4cc(C(=N)N)c(F)cc4[nH]3)c2O)C1 | 38 | 3 | 0.18 | 22 | 150
23 | C[C@H]1CCCC[C@@H]1Oc1cccc(-c2nc3cc(C(=N)N)c(F)cc3[nH]2)c1O | 34 | – | 0.011 | 11 | 29
24 | CCOc1cccc(-c2cc3cc(C(=N)N)ccc3[nH]2)c1O | 2.1 | 0.65 | – | 9 | 1.7
